Read-outs that look alike come from different tables or passages of the source.
How the values were obtained:
[1] = system: Gram positive, Gram negative bacteria, yeast and mould; experiment: Minimum inhibitory concentration, whole panel of microbes; type: cell-based; conditions: for Antimicrobial activity, in words: up to 1.0% concentration
[2] = Reduction of surface tension of water; type: physicochemical
[3] = system: Staphylococcus aureus ATCC 6538S; experiment: Minimum inhibitory concentration; type: cell-based
[4] = system: Pseudomonas aeruginosa Immuno type IV; experiment: Minimum inhibitory concentration; type: cell-based; conditions: P. aeruginosa
[5] = system: Escherichia coli ATCC 10142; experiment: Minimum inhibitory concentration; type: cell-based; conditions: E. coli
[6] = system: Bacillus subtilis ATCC 9372; experiment: Minimum inhibitory concentration; type: cell-based; conditions: B. subtilis
[7] = system: Malassezia furfur MTCC 1374; experiment: Minimum inhibitory concentration; type: cell-based; conditions: M. furfur
[8] = system: Aspergillus niger ATCC 16404; experiment: Minimum inhibitory concentration; type: cell-based; conditions: for Concentration of individual component at the MIC of the blend: A. niger
[9] = system: Propionibacterium acnes MTCC 1951; experiment: Minimum inhibitory concentration; type: cell-based; conditions: P. acnes
[10] = system: Candida albicans ATCC 10231; experiment: Minimum inhibitory concentration; type: cell-based; conditions: for Concentration of individual component at the MIC of the blend: C. albicans
[11] = 0.1% aqueous solution at 25° C., from 72 dynes/cm; cited from earlier work

CCCCCCCC(=O)NCCO [Octanoyl MEA amide, N-(2-hydroxylethyl)caprylic acid amide]
Antimicrobial activity, in words [1]: did not exhibit any antibacterial activity
Surface tension of water reduced to ([2]; 0.05% level): 38 dynes/cm
Surface tension of water ([2]; 0.05% solution): 38.5 dyne/cm
Surface tension of water reduced to ([2]; 0.1% concentration): 30 dynes/cm
Surface tension of water ([2]; 0.1% solution): 30.5 dyne/cm

C=CCCCCCCCCC(=O)NCCO [Undecylenoyl MEA amide, N-undecylenoyl monoethanol amide]
Concentration of individual component at the MIC of the blend ([3]; within Preservative Blend No 1): 200 ppm
Concentration of individual component at the MIC of the blend ([3]; within Preservative Blend No 2): 300 ppm
Concentration of individual component at the MIC of the blend ([4]; within Preservative Blend No 1): 200 ppm
Concentration of individual component at the MIC of the blend ([4]; within Preservative Blend No 2): 300 ppm
Concentration of individual component at the MIC of the blend ([5]; within Preservative Blend No 1): 200 ppm
Concentration of individual component at the MIC of the blend ([5]; within Preservative Blend No 2): 300 ppm
Concentration of individual component at the MIC of the blend ([6]; within Preservative Blend No 1): 200 ppm
Concentration of individual component at the MIC of the blend ([6]; within Preservative Blend No 2): 200 ppm
Concentration of individual component at the MIC of the blend ([7]; within Preservative Blend No 1): 400 ppm
Concentration of individual component at the MIC of the blend ([7]; within Preservative Blend No 2): 400 ppm
Concentration of individual component at the MIC of the blend ([8]; within Preservative Blend No 1): 300 ppm
Concentration of individual component at the MIC of the blend ([8]; within Preservative Blend No 2): 200 ppm
Concentration of individual component at the MIC of the blend ([9]; within Preservative Blend No 1): 300 ppm
Concentration of individual component at the MIC of the blend ([9]; within Preservative Blend No 2): 200 ppm
Concentration of individual component at the MIC of the blend ([10]; within Preservative Blend No 1): 300 ppm
Concentration of individual component at the MIC of the blend ([10]; within Preservative Blend No 2): 200 ppm
Concentration needed for antimicrobial activity of the ingredient by itself (range over microbes) ([1]; ingredient alone, octanoyl glycine tested at neutral pH): > 10000 ppm
Antimicrobial activity, in words [1]: does not exhibit any antimicrobial activity

OCCOc1ccccc1 [Phenoxy ethanol, 2-Phenoxy ethanol]
Concentration of individual component at the MIC of the blend ([6]; within Preservative Blend No 2): 1600 ppm
Concentration of individual component at the MIC of the blend ([7]; within Preservative Blend No 2): 3200 ppm
Concentration of phenoxy ethanol in combination enough to kill the organism ([8]; in combination with [A] and [B] of Preservative Blend No 1, Aspergillus): around 0.25%
Concentration of phenoxy ethanol in combination enough to kill the organism ([10]; in combination with [A] and [B] of Preservative Blend No 1, Candida): around 0.25%

CCCCC(CC)COCC(O)CO (stereo not shown) [2-ethyl hexyl glyceryl ether, 3-(2-ethylhexyl)oxy 1,2-propanediol]
Surface tension of water reduced to [11]: 32 dynes/cm

From patent US9661847B2, “Antimicrobial preservative compositions for personal care products” (Galaxy Surfactants Ltd., priority 2011, dated 2017)
